Active and inactive are the calls of the source. No cut-off for these calls is given here.
Key:
[1] = Antagonist activity at serotonin receptor in guinea pig ileum assessed as inhibition of serotonin-induced contraction; format: functional, tissue-based; conditions: Cavia porcellus
[2] = target: T1, B2 bradykinin receptor (Homo sapiens) (UniProt P30411); test: Displacement of [3H]bradykinin from bradykinin B2 receptor expressed in baculovirus-infected SF21 cells at 5 ug/mL
T1 sequence (whole entry): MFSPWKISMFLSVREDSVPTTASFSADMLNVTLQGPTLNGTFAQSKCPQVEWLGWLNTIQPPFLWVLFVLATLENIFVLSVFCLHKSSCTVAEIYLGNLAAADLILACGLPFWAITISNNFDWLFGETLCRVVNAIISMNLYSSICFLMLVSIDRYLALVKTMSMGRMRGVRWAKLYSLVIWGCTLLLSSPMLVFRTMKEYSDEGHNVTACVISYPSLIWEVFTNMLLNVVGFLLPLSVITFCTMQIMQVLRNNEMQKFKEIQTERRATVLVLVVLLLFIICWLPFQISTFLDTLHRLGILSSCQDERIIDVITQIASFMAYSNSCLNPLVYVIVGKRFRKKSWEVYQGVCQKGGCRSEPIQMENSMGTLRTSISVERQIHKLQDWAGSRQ

[3] = target: Somatostatin receptor (Rattus norvegicus) (UniProt Q7TT86); test: Displacement of [125I]somatostatin from somatostatin receptor in rat cerebral cortices membrane at 5 ug/mL; format: cell membranes
Somatostatin receptor (Rattus norvegicus), sequence (Q7TT86 as listed by the source): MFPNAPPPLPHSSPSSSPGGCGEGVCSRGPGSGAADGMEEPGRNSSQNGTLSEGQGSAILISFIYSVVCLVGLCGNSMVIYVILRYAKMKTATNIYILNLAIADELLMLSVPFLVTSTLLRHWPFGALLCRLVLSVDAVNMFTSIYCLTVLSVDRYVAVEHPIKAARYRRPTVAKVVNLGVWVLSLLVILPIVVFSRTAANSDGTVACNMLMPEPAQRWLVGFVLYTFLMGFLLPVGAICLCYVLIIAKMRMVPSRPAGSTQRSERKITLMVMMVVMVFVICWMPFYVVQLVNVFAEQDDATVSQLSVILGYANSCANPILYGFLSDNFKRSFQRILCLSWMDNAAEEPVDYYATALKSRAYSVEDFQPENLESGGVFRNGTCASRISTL

[4] = target: Calcitonin gene-related peptide type 1 receptor (Homo sapiens) (UniProt Q16602); test: Binding affinity to CGRP receptor at 5 ug/mL
Calcitonin gene-related peptide type 1 receptor (Homo sapiens), sequence (Q16602 whole entry): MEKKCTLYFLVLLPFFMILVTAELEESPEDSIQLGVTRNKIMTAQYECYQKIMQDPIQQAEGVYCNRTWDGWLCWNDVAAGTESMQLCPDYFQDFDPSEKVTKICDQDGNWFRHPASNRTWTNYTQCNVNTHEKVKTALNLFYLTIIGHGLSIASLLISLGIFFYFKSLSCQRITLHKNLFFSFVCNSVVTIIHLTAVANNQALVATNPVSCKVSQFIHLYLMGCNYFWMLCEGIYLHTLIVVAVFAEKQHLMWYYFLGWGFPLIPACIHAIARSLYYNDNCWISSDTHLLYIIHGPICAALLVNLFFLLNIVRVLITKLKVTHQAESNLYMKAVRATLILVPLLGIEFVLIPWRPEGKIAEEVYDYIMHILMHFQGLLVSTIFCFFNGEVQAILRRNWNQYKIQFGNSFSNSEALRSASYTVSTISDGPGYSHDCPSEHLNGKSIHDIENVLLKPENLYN

[5] = Binding affinity to quisqualate site of glutamate receptor at 5 ug/mL by AMPA binding assay
[6] = Binding affinity to neurotensin receptor at 5 ug/mL
[7] = Binding affinity to regulatory site of NMDA receptor at 5 ug/mL by glycine binding assay
[8] = Binding affinity to VIP receptor at 5 ug/mL
[9] = target: T2, Neuromedin-K receptor (Homo sapiens) (UniProt P29371); test: Binding affinity to NK3 tachykinin receptor at 5 ug/mL by senktide binding assay
T2 sequence (whole entry): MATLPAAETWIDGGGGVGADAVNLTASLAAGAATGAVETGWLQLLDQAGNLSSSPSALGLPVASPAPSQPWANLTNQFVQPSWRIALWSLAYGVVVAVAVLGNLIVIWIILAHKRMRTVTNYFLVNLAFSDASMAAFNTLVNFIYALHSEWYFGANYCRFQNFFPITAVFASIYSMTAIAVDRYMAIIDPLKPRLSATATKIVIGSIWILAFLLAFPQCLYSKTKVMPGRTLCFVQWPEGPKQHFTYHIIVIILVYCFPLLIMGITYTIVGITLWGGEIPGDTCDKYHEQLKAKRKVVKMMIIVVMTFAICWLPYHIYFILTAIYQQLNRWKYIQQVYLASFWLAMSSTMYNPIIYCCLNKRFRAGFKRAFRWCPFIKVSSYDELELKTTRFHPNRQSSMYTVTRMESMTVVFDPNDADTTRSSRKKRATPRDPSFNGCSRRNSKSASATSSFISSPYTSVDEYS

[10] = system: BOWES; test: Binding affinity to galanin receptor in human BOWES cells at 5 ug/mL; format: cell-based
[11] = organism: Rattus norvegicus; test: Displacement of [3H]NPY from neuropeptide Y receptor in rat cerebral cortices membrane at 5 ug/mL; format: cell membranes

With `NCCc1c[nH]c2ccc(O)c(C(CN)c3c[nH]c4cc(Br)ccc34)c12` (racemic) as the compound, how does the IC50 [1] read?
Its IC50 is 100 µM.

Which results are given for `NCCc1c(C(CN)c2c[nH]c3cc(Br)ccc23)[nH]c2cc(Br)ccc12` (racemic)?
inhibition [2]: 89%; Activity [3]: 91%; Activity [4]: inactive; Activity [5]: inactive; Activity [6]: inactive; Activity [7]: inactive; Activity [8]: inactive; Activity [9]: inactive; Activity [10]: inactive; IC50 [1]: 10 µM; inhibition [11]: 67%

With `NCCc1c(C(CN)c2c[nH]c3cc(Br)ccc23)[nH]c2cc(C(CN)c3c[nH]c4cc(Br)ccc34)c(O)cc12` (stereo in doubt; form 1) as the compound, how does the inhibition [2] read?
Its inhibition is 100%.

What about the inhibition [11] of the same compound?
Its inhibition is 90%.

Which Activity [3] does the source give for `NCCc1c(C(CN)c2c[nH]c3cc(Br)ccc23)[nH]c2cc(C(CN)c3c[nH]c4cc(Br)ccc34)c(O)cc12` (racemic) here?
Its Activity is “Active”.

And the Activity [4]?
The Activity was “inactive”.

What about the Activity [5] of the same compound?
Its Activity is “inactive”.

What about the Activity [6] of the same compound?
The Activity was “inactive”.

What about the Activity [7] of the same compound?
The Activity was “inactive”.

And the Activity [8]?
Its Activity is “inactive”.

What about the Activity [9] of the same compound?
Its Activity is “inactive”.

And the Activity [10]?
The Activity was “inactive”.

Which IC50 [1] does the source give for `NCCc1c(C(CN)c2c[nH]c3cc(Br)ccc23)[nH]c2ccc(O)c(C(CN)c3c[nH]c4cc(Br)ccc34)c12` (racemic) here?
The IC50 was 2 µM.

Which inhibition [2] does the source give for `NCCc1c(C(CN)c2c[nH]c3cc(Br)ccc23)[nH]c2cc(C(CN)c3c[nH]c4cc(Br)ccc34)c(O)cc12` (stereo in doubt; form 2) here?
The inhibition was 93%.

And the inhibition [11]?
Its inhibition is 62%.

Which results are given for `NCCc1c(C(CN)c2c[nH]c3cc(Br)ccc23)[nH]c2ccc(O)cc12` (racemic)?
inhibition [2]: 63%; Activity [3]: 87%; Activity [4]: inactive; Activity [5]: inactive; Activity [6]: inactive; Activity [7]: inactive; Activity [8]: inactive; Activity [9]: inactive; Activity [10]: inactive; IC50 [1]: 50 µM; inhibition [11]: 63%

Source: ChEMBL document CHEMBL1159283, “Further brominated bis- and tris-indole alkaloids from the deep-water New Caledonian marine sponge Orina Sp” (J Nat Prod, 1995)
